From patent US20250171459A1, “2-METHYL-4',5'-DIHYDROSPIRO[PIPERIDINE-4,7'-THIENO[2,3-C]PYRAN] DERIVATIVES AS INHIBITORS OF APOL1 AND METHODS OF USING SAME” (Vertex Pharmaceuticals Incorporated, priority 2022, published 2025)
pIC50: −log10 of the molar value.

Target: T1, APOL1 (Homo sapiens, UniProt O14791)
T1 sequence (O14791 1-398 S342G/I384M): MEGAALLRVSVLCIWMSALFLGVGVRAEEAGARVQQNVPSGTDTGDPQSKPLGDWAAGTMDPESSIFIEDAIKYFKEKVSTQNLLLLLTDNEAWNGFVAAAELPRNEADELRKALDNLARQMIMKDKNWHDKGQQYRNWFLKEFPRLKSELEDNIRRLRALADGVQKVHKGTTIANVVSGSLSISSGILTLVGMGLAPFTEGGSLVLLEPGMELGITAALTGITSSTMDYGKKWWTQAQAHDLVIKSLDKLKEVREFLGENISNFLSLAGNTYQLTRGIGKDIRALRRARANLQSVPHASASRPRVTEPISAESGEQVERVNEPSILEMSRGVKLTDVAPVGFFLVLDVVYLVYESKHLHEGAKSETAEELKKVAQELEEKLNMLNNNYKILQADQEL
Test: MultiTox-Fluor Multiplex Cytotoxicity Assay in tet-inducible APOL1 T-REx-HEK293 cells (cell rescue, ratio of dead to live cells)
Format: cell-based
Settings: tet-inducible transgenic APOL1 T-REx-HEK293 cell lines, 50 ng/mL tet, 24 hours; read-out: IP50 (i.e., IC50 for cell proliferation)
Summary of the method: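 T-REx-HEK293 cells with tet-inducible APOL1 were treated with compound (10 μM top, 10-point 3-fold dilution, duplicate) plus 50 ng/mL tetracycline for 24 h at 37° C, in DMEM with 2% tet-free FBS. MultiTox-Fluor protease signals gave a dead/live ratio, normalized to no tet (100% viability) and tet alone (0%).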

| SMILES | pIC50 |
| --- | --- |
| CCc1cc2c(s1)CCOC21CCN(CC2CN(C(=O)OC(C)(C)C)C2)CC1 [Compound 1149] | 6.00 to 6.30 |
| C[C@H]1C[C@@]2(CCN1Cc1ccnn1C)OC[C@H](O)c1cc(Cl)sc12 [Compound 787] | 6.00 to 6.30 |
| CCc1cc2c(s1)CCO[C@@]21CCN(C[C@H]2C[C@@H](NS(=O)(=O)c3cccc(C#N)c3)C2)[C@@H](C)C1 [Compound 400] | > 7.00 |
| C[C@H]1C[C@@]2(CCN1Cc1cnn(CCS(C)(=O)=O)c1)OCC(O)c1cc(C(F)(F)C(F)F)sc12 (stereo partly drawn) [Compound 1012, (2′S, 7R)-2′-methyl-1′-[[1-(2-methylsulfonylethyl)pyrazol-4-yl]methyl]-2-(1,1,2,2-tetrafluoroethyl)spiro[4,5-dihydrothieno[2,3-c]pyran-7,4′-piperidine]-4-ol] | > 7.00 |
| CCc1cc2c(s1)CCO[C@@]21CCN(Cc2cnn(CCS(C)(=O)=O)c2)[C@H](C)C1 [Compound 272] | 6.30 to 7.00 |
| CCc1cc2c(s1)CCO[C@@]21CCN(Cc2cn(-c3cccnc3)nn2)[C@@H](C)C1 [Compound 73] | > 7.00 |
| CCc1cc2c(s1)CCOC21CCN(Cc2cn(CCS(=O)(=O)C3CC3)nn2)CC1 [Compound 1086] | 6.00 to 6.30 |
| C[C@H]1C[C@@]2(CCN1Cc1cnn(CCS(C)(=O)=O)c1)OCC(O)c1c2sc(Cl)c1Cl (stereo partly drawn) [Compound 860, (2′S, 7R)-2,3-dichloro-2′-methyl-1′-[[1-(2-methylsulfonylethyl)pyrazol-4-yl]methyl]spiro[4,5-dihydrothieno[2,3-c]pyran-7,4′-piperidine]-4-ol] | > 7.00 |
| Cc1ncccc1CN1CC[C@]2(C[C@@H]1C)OCCc1cc(Cl)sc12 [Compound 674] | 6.00 to 6.30 |
| C[C@H]1C[C@@]2(CCN1Cc1cnn(CCS(C)(=O)=O)c1)OCCc1cc(C(F)(F)C(F)F)sc12 [Compound 1011, (2′S, 7R)-2′-methyl-1′-[[1-(2-methylsulfonylethyl)pyrazol-4-yl]methyl]-2-(1,1,2,2-tetrafluoroethyl)spiro[4,5-dihydrothieno[2,3-c]pyran-7,4′-piperidine]] | > 7.00 |
| CCc1cc2c(s1)CCO[C@@]21CCN(Cc2cn(Cc3ncc(C)o3)nn2)[C@@H](C)C1 [Compound 40] | 6.30 to 7.00 |
| C[C@H]1C[C@@]2(CCN1Cc1cncc(F)c1)OC[C@H](O)c1cc(Cl)sc12 [Compound 784] | 6.30 to 7.00 |
| CCc1cc2c(s1)CCOC21CCN(Cc2cn(CC(C)(O)COC)nn2)C(C)C1 (centres unmarked) [Compound 84] | > 7.00 |
| C[C@H]1C[C@@]2(CCN1Cc1cn(CCS(C)(=O)=O)nn1)OCCc1cc(CO)sc12 [Compound 1019, [(2′S, 7R)-2′-methyl-1′-[[1-(2-methylsulfonylethyl)triazol-4-yl]methyl]spiro[4,5-dihydrothieno[2,3-c]pyran-7,4′-piperidine]-2-yl]methanol] | 6.00 to 6.30 |
| CCc1cc2c(s1)CCO[C@@]21CCN(Cc2cn(CC(N)=O)nn2)[C@@H](C)C1 [Compound 181] | 6.30 to 7.00 |
| CCc1cc2c(s1)CCO[C@@]21CCN(CC2CN(C(=O)c3ccc(=O)[nH]c3)C2)[C@@H](C)C1 [Compound 485] | > 7.00 |
| C[C@H]1C[C@@]2(CCN1C1CCCC1O)OCCc1cc(CC(F)F)sc12 (some centres unmarked) [Compound 595] | > 7.00 |
| C[C@H]1C[C@@]2(CCN1Cc1cnn(CC(O)C3(O)CCC3)c1)OCCc1c2sc(C(F)(F)F)c1CO (some centres unmarked) [Compound 940] | > 7.00 |
| C[C@H]1C[C@@]2(CCN1Cc1ccnnc1)OCCc1cc(CC(F)F)sc12 [Compound 569] | > 7.00 |
| CCc1cc2c(s1)CCO[C@@]21CCN(Cc2cnc(NCc3ccc(O)cn3)nc2)[C@@H](C)C1 [Compound 206] | > 7.00 |
| CCc1cc2c(s1)CCO[C@@]21CCN(Cc2cn(CCS(=O)(=O)c3ccccc3)nn2)[C@@H](C)C1 [Compound 26] | > 7.00 |

| SMILES | pIC50 |
| --- | --- |
| CCc1cc2c(s1)CCO[C@@]21CCN(Cc2cn(CCN3CCCC3=O)nn2)[C@@H](C)C1 [Compound 194] | 6.00 to 6.30 |
| CCc1cc2c(s1)CCOC21CCN(Cc2ccc(C(=O)NC3CC(C)(O)C3)nc2)CC1 (centres unmarked) [Compound 1064] | 6.30 to 7.00 |
| CCc1cc2c(s1)CCOC21CCN(Cc2ccc(N(C)S(C)(=O)=O)nc2)CC1 [Compound 1071] | 6.30 to 7.00 |
| CCc1cc2c(s1)CCO[C@@]21CCN(Cc2cn(-c3cnc(C)nc3)nn2)[C@@H](C)C1 [Compound 70] | > 7.00 |
| C[C@H]1C[C@@]2(CCN1Cc1ccccc1F)OCCc1cc(Cl)sc12 [Compound 682] | 6.30 to 7.00 |
| CCc1cc2c(s1)CCO[C@@]21CCN(Cc2cn(CC(=O)N3CCCC3)nn2)[C@@H](C)C1 [Compound 63] | > 7.00 |
| COC(=O)c1c(C(F)(F)F)sc2c1CCO[C@@]21CCN(Cc2cn(CCS(C)(=O)=O)nn2)[C@@H](C)C1 [Compound 1006, Methyl (2′S,7R)-2′-methyl-1′-[[1-(2-methylsulfonylethyl)triazol-4-yl]methyl]-2-(trifluoromethyl)spiro[4,5-dihydrothieno[2,3-c]pyran-7,4′-piperidine]-3-carboxylate] | 6.30 to 7.00 |
| CC(=O)NC1CO[C@@]2(CCN(Cc3cnn(CCS(C)(=O)=O)c3)[C@@H](C)C2)c2sc(Cl)cc21 (stereo partly drawn) [Compound 855, N-[(2′S, 7R)-2-chloro-2′-methyl-1′-[[1-(2-methylsulfonylethyl)pyrazol-4-yl]methyl]spiro[4,5-dihydrothieno[2,3-c]pyran-7,4′-piperidine]-4-yl]acetamide] | > 7.00 |
| CCc1cc2c(s1)CCO[C@@]21CCN(CC2CN(C(=O)CS(=O)(=O)c3ccccc3)C2)[C@@H](C)C1 [Compound 456] | 6.30 to 7.00 |
| CCc1cc2c(s1)CCO[C@@]21CCN(C[C@H]2C[C@@H](NC(=O)c3ccc4cn[nH]c4c3)C2)[C@@H](C)C1 [Compound 307] | > 7.00 |
| CCc1cc2c(s1)CCO[C@@]21CCN(Cc2cn(Cc3cnn(C)n3)nn2)[C@@H](C)C1 [Compound 167] | > 7.00 |
| CCc1cc2c(s1)CCO[C@@]21CCN(CC2CN(C(=O)C3CCS(=O)(=O)N3)C2)[C@@H](C)C1 (some centres unmarked) [Compound 446] | > 7.00 |
| C[C@H]1C[C@@]2(CCN1Cc1cc(F)cc(F)c1O)OC[C@H](O)c1cc(Cl)sc12 [Compound 774] | 6.00 to 6.30 |
| CCc1cc2c(s1)CCO[C@@]21CCN(CC(O)CO)[C@@H](C)C1 (some centres unmarked) [Compound 282] | 6.00 to 6.30 |
| CCc1cc2c(s1)CCO[C@@]21CCN(C[C@H]2C[C@@H](NS(=O)(=O)CC#N)C2)[C@@H](C)C1 [Compound 389] | > 7.00 |
| CCc1cc2c(s1)CCO[C@@]21CCN(C[C@H]2C[C@@H](NC(=O)COCC(F)(F)F)C2)[C@@H](C)C1 [Compound 301, N-[3-[[(2′S,4R)-2-ethyl-2′-methyl-spiro[6,7-dihydrothieno[3,2-c]pyran-4,4′-piperidine]-1′-yl]methyl]cyclobutyl]-2-(2,2,2-trifluoroethoxy)acetamide] | 6.30 to 7.00 |
| C[C@H]1C[C@@]2(CCN1Cc1cccc(OCCO)c1)OC[C@H](O)c1cc(Cl)sc12 [Compound 803] | 6.30 to 7.00 |
| CCc1cc2c(s1)CCO[C@@]21CCN(Cc2ccc(N[C@@H](CO)[C@@H](C)O)nc2)[C@@H](C)C1 [Compound 214] | > 7.00 |
| C[C@H]1C[C@@]2(CCN1Cc1cn[nH]c1)OCC(O)c1cc(Cl)sc12 (some centres unmarked) [Compound 817] | > 7.00 |
| CCc1cc2c(s1)CCOC21CCN(Cc2cnc(N[C@H]3CC[C@H](O)CC3)nc2)CC1 [Compound 1073, (1r,4r)-4-((5-((2′-ethyl-6′,7′-dihydrospiro[piperidine-4,4′-thieno[3,2-c]pyran]-1-yl)methyl)pyrimidin-2-yl)amino)cyclohexan-1-ol] | > 7.00 |
